From patent publication US20040147531A1, “Amidine derivatives for treating amyloidosis” (priority 2001, published 2004)

Columns and labels:
Parameters in all cases: key: “+” = active; “−” = inactive; “pr” = promoting
Aβ40 = target: T1, Aβ40 (Homo sapiens, UniProt P05067); assay: mass spectroscopy (MS) assay, binding to Aβ; conditions: 200 μM test compound, 20 μM solubilized Aβ40, pH 7.4; ability to bind to Aβ
T1 construct: 200 μM of a test compound and 20 μM of solubilized Aβ40
Experimental: Test compounds were purchased from commercial sources or synthesized and screened by thioflavin T fluorescent assay (“ThT assay”). Alternatively, one could screen test compounds by circular dichroism (“CD”), electron microscopy (“EM”), or mass spectroscopy (“MS”) assays.
And in the mass spectroscopy (“MS”) assay, samples were prepared as aqueous solutions containing 20% ethanol, 200 μM of a test compound and 20 μM of solubilized Aβ40. The pH value of each sample was adjusted to 7.4 (±0.2) by addition of 0.1% aqueous sodium hydroxide. The solutions were then analyzed by electrospray ionization mass spectroscopy using a Waters ZQ 4000 mass spectrometer. Samples were introduced by direct infusion at a flow-rate of 25 μL/min within 2 hr. after sample preparation. The source temperature was kept at 70° C. and the cone voltage was 20 V for all the analysis. Data were processed using Masslynx 3.5 software.

Aβ [1] = target: T2, Aβ (Homo sapiens, UniProt P05067); assay: electron microscopy (EM) assay, inhibition of fibrillogenesis; format: biochemical; conditions: soluble Aβ
T2 construct: Aβ peptide: Aβ (1-40) 95% purity (American Peptide Company, Inc, Sunnyvale, Calif. USA)
T2 sequence (P05067 672-711 limits assumed): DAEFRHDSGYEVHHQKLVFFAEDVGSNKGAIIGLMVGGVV
Text: (§1) Test compounds were purchased from commercial sources or synthesized and screened by thioflavin T fluorescent assay (“ThT assay”). Alternatively, one could screen test compounds by circular dichroism (“CD”), electron microscopy (“EM”), or mass spectroscopy (“MS”) assays. The MS assay gives data on the ability of compounds to bind to an amyloid protein, whereas the ThT, EM, and CD assays give data on inhibition of fibrillogenesis.
Similarly, in the electron microscopy (“EM”) assay, each sample was sonicated for 1 min to disrupt large clumps before testing. The sample (5-μL aliquot) was placed on freshly cleaved mica and allowed to air dry. The mica was placed in a Balzers High-vacuum, Freeze-Etch Unit (model 301), shadowed with platinum (30° angle), and coated with a carbon film. The replica was removed from the mica by flotation and transferred onto a 300-mesh copper grid. Samples were examined using a Joel 2000 FX transmission electron microscope. […]

Aβ [2] = target: T2, Aβ; assay: circular dichroism (CD) assay, inhibition of fibrillogenesis; format: biochemical; conditions: soluble Aβ, 37° C., 190-240 nm
Text: as §1
In the circular dichroism (“CD”) assay, samples were transferred to 0.1-cm path-length quartz cuvettes and CD scans were taken using a Jasco J-715 spectropolarimeter. Readings were taken at 37° C., between 190 and 240 nm, with a resolution of 0.1 nm and a bandwidth of 1 nm. […]

T1 sequence (P05067 672-711 limits assumed): as above

Compound	MS Assay (Aβ40)	EM (Aβ [1])	CD (Aβ [2])
Cl.N=C(N)c1ccc(OCCCOc2ccc(CCC(=O)O)cc2)cc1 [Compound 40]	−		
Cl.N=C(N)c1ccc(OCCCCCCCC(=O)O)cc1 [Compound 42]	+		
N=C(N)c1ccc(OCCCCCCCCCBr)cc1 [Compound 43]	+		
Br.N=C(N)c1ccc(OCCCCCCCCBr)cc1 [Compound 44]	+		
Cl.N=C(N)c1ccc(OCCCCCCCCC(=O)O)cc1 [Compound 45]	+		
N=C(N)c1ccc(-c2cc3ccc(C(=N)N)cc3[nH]2)cc1 [Compound 47]	−		
Cl.Cl.N=C(N)Cc1ccc(OCCCCCOc2ccc(CC(=N)N)cc2)cc1 [Compound 48]	+		
Cl.Cl.N=C(N)Nc1ccc(OCCCCCOc2ccc(NC(=N)N)cc2)cc1 [Compound 49]	+		
Cc1c(-c2ccc(C(=N)N)cc2)oc(-c2ccc(C(=N)N)cc2)c1C [Compound 57]	+		
COc1ccc2c(c1)[nH]c1cc(C(=N)N)ccc12 [Compound 59]	+		
CC(C)NC(=N)c1cccc(COc2cccc3c(OCc4cccc(C(=N)NC(C)C)c4)cccc23)c1 [Compound 60]	+	−	+
CC(C)NC(=N)c1ccc(COc2cccc3c(OCc4ccc(C(=N)NC(C)C)cc4)cccc23)cc1 [Compound 61]	+	+	+
CC(C)NC(=N)c1ccc(OCc2ccc(COc3ccc(C(=N)NC(C)C)cc3)c3ccccc23)cc1 [Compound 62]	+	+	+
c1cc2c(cc1C1=NCCN1)c1cc(C3=NCCN3)ccc1n2CCCCCn1c2ccc(C3=NCCN3)cc2c2cc(C3=NCCN3)ccc21 [Compound 63]	+		
N=C(N)c1ccc(COc2ccc([N+](=O)[O-])cc2)cc1 [Compound 67]	−		
N=C(N)c1cccc(OCc2ccccc2)c1 [Compound 68]	−		
CC(C)c1ccc(OCc2ccc(C(=N)N)cc2)cc1 [Compound 70]	+	+	+
Cc1cc(-c2nc3cc(C(=N)N)ccc3[nH]2)c(C)cc1-c1nc2cc(C(=N)N)ccc2[nH]1 [Compound 73]	+		
N=C(N)c1ccc(OCCCCCCCCCCCCOc2ccc(C(=N)N)cc2Br)c(Br)c1 [Compound 76]	+	+	−
N=C(N)c1cccc(COc2cccc3c(OCc4cccc(C(=N)N)c4)cccc23)c1 [Compound 77]	+		
N=C(N)c1cccc(OCCC(O)COc2cccc(C(=N)N)c2)c1 (centres unmarked) [Compound 79]	+		
N=C(N)c1ccc2[nH]c(Cc3nc4cc([N+](=O)[O-])ccc4[nH]3)nc2c1 [Compound 80]	+		
N=C(N)c1ccc2[nH]c(-c3ccccc3)nc2c1 [Compound 81]	+		
N=C(N)c1ccc(-c2cc(-c3cccc(C(=N)N)c3)on2)cc1 [Compound 82]	−		
N=C(N)c1ccc(-c2cc(-c3cccc(C(=N)N)c3)no2)cc1 [Compound 83]	+	+	−
COc1cc(C2=NCCN2)ccc1OCCCOc1ccc(C2=NCCN2)cc1OC [Compound 85]	−		
COc1cc(C(=N)N)ccc1OC/C=C\COc1ccc(C(=N)N)cc1OC [Compound 86]	+		

Compound	MS Assay (Aβ40)	EM (Aβ [1])	CD (Aβ [2])
c1cc2[nH]c(-c3ccc4[nH]c(CCc5nc6cc(-c7nc8cc(C9=NCCN9)ccc8[nH]7)ccc6[nH]5)nc4c3)nc2cc1C1=NCCN1 [Compound 87]	+		
CCCCNC(=N)c1ccc2nc(-c3ccc(CCc4ccc(-c5nc6ccc(C(=N)NCCCC)cc6[nH]5)cc4)cc3)[nH]c2c1 [Compound 89]	+		
CC(C)NC(=N)c1ccc(COc2ccc3ccc(OCc4ccc(C(=N)NC(C)C)cc4)cc3c2)cc1 [Compound 90]	+		
CC(C)NC(=N)c1cccc(COc2ccc3ccc(OCc4cccc(C(=N)NC(C)C)c4)cc3c2)c1 [Compound 91]	+		
N=C(N)c1ccc(OCCCCCOc2ccc(-c3nc4cc(C(=N)N)ccc4[nH]3)cc2)cc1 [Compound 94]	+		
COC(=O)C(CCOc1ccc(C(=N)NO)cc1)CCOc1ccc(C(=N)NO)cc1 (centres unmarked) [Compound 95]	+		
CCC(C)NC(=N)c1ccc(OCCCCCOc2cccc(C3=NC4C=C(C(=N)NC(C)C)C=CC4N3)c2)cc1.Cl.Cl.Cl (centres unmarked) [Compound 96]	+		
Cn1c(CCCCc2nc3cc(C(=N)N)ccc3n2C)nc2cc(C(=N)N)ccc21 [Compound 97]	+		
N=C(N)c1ccc(NC(=O)CC(=O)Nc2ccc(C(N)N)cc2)cc1 [Compound 98]	+		
N=C(N)c1ccc(-c2ccc(-c3ccc(C(=N)N)cc3)o2)cc1 [Compound 99]	+		
CC(C)NC(=N)c1ccc(-c2ccc(-c3ccc(C(=N)NC(C)C)cc3)o2)cc1 [Compound 100]	+		
Cn1c(-c2nc3ccc(C(=N)N)cc3[nH]2)ccc1-c1nc2ccc(C(=N)N)cc2[nH]1 [Compound 103]	+	+	−
Cc1nc(-c2ccc(C(=N)N)cc2)cc(-c2ccc(C(=N)N)cc2)n1 [Compound 106]	+		
Cn1c(-c2ccc(C(=N)N)cc2)ccc1-c1ccc(C(=N)N)cc1 [Compound 108]	+		
N=C(N)c1ccc2nc(-c3ccc4cc(-c5nc6ccc(C(=N)N)cc6[nH]5)ccc4c3)[nH]c2c1 [Compound 110]	+		
N=C(N)c1ccc2nc(-c3ccc(-c4ccc([N+](=O)[O-])cc4)o3)[nH]c2c1 [Compound 111]	+		
N=C(N)c1ccc2nc(-c3ccc(-c4ccc(-c5nc6ccc(C(=N)N)cc6[nH]5)cc4)cc3)[nH]c2c1 [Compound 113]	+		
N=C(N)c1ccc2nc(-c3ccc(Cc4ccc(-c5nc6ccc(C(=N)N)cc6[nH]5)cc4)cc3)[nH]c2c1 [Compound 114]	+	+	−
N=C(N)c1ccc2nc(-c3ccc(C4CC4c4ccc(-c5nc6ccc(C(=N)N)cc6[nH]5)cc4)cc3)[nH]c2c1 (centres unmarked) [Compound 115]	+	+	−
N=C(N)c1ccc2nc(-c3ccc(CCc4ccc(-c5nc6ccc(C(=N)N)cc6[nH]5)s4)cc3)[nH]c2c1 [Compound 116]	+	+	−
Cc1cc(C(=N)N)ccc1-c1ccc(-c2ccc(C(=N)N)cc2C)o1 [Compound 118]	−		
N=C(N)c1ccc2[nH]c(-c3ccc4c(=O)cc(-c5ccccc5)oc4c3)nc2c1 [Compound 119]	+		
N=C(N)c1ccc2nc(-c3ccc(CCc4ccc(F)cc4)cc3)[nH]c2c1 [Compound 126]	+		
N=C(N)c1ccc(-c2ccc(-c3nc4cc(C(=N)N)ccc4o3)o2)cc1 [Compound 129]	+		
Cc1cc(C(=N)N)ccc1-c1ccc(-c2nc3ccc(C(=N)N)cc3[nH]2)o1 [Compound 131]	+		
CC(=N)Nc1ccc(-c2ccc(-c3ccc(NC(C)=N)cc3C)o2)c(C)c1 [Compound 135]	+		
N=C(Nc1ccc(-c2ccc(-c3ccc(NC(=N)c4ccccn4)cc3O)o2)c(O)c1)c1ccccn1 [Compound 136]	+		
